# Results: US5726200A, “Pro-drugs for CCK antagonists” (Warner-Lambert Company, priority 1996, dated 1998)
# Target: T1, CCK-B receptor (Mus musculus, UniProt P56481)
# T1 construct: from tissue; host or cells: cerebral cortex membranes of male CFLP mice
# T1 sequence (P56481 1-453): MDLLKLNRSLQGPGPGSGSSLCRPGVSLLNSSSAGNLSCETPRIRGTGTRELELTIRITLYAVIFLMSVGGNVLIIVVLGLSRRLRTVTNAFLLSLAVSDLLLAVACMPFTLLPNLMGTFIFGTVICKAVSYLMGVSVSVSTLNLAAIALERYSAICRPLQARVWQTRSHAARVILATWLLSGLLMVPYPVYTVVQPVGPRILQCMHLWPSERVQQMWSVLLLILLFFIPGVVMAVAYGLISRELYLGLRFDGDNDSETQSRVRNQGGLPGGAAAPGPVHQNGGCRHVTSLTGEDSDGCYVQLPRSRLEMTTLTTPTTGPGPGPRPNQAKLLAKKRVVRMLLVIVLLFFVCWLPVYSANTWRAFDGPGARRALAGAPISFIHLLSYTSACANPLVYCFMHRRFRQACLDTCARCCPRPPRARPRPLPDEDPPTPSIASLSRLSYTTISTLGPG
# Assay: Displacement of tritiated-pentagastrin binding to mouse cerebral cortical membranes
# Parameters: species or system mouse (male CFLP mice)
# Conditions: displacement of 2 nM tritiated-pentagastrin, n = number of assays, read-out: Receptor Affinity CCI-B (Ki)
# Protocol: The biological activity of compounds of the present invention was evaluated employing an initial screening test which rapidly and accurately measured the binding of the tested compound to known CCK receptor sites. […] (See Hays et al, Neuropeptides 1:53-62, 1980; and Satuer et al, Science 208:1155-1156, 1980).
# In this screening test, the cerebral cortices taken from male CFLP mice weighing between 30-40 g were dissected on ice, weighed, and homogenized in 10 volumes of 50 mM Tris-HCl buffer (pH 7.4 at 0°-4° C.). The resulting suspension was centrifuged, the supernate was discarded, and the pellet was washed by resuspension in Tris-HCl buffer followed by recentrifugation. The final pellet was resuspended in 20 volumes of […] Hepes buffer (pH 7.2 at 23° C.) containing 130 mM NaCl, […] KCl, […] MgCl2, […] EDTA, 5 mg/mL bovine albumin, and bacitracin (0.25 mg/mL).
# In saturation studies, cerebral cortical membranes were incubated at 23° C. for 120 minutes in a final volume of 500 μL of Hepes incubation buffer (pH 7.2) together with 0.2-20 nM tritiated-pentagastrin (Amersham International, England).
# In the displacement experiments, membranes were incubated with a single concentration (2 nM) of iigand, together with increasing concentrations (10^-11 to […]) of competitive test compound. In each case, the nonspecific binding was defined as that persisting in the presence of the unlabeled octapeptide CCK26-33 (10^-6 M).
# Following incubation, radioactivity bound to membranes was separated from that free in solution by rapid filtration through Whatman GF/B filters and washed three times with 4 mL of ice cold Tris-HCl buffer. Filters from samples incubated with tritiated-pentagastrin were placed in polyethylene vials with 4 mL of scintillation cocktail, and the radioactivity was estimated by liquid scintillation spectrometry (efficiency 47-52%).
# The specific binding to CCK receptor sites was defined as the total bound tritiated-pentagastrin minus the amount of tritiated-pentagastrin bound in the presence of 10^-6 octapeptide, CCK26-33.
# Saturation curves for specific tritiated-pentagastrin binding to mouse cortical membranes were analyzed by the methods of Scatchard (Ann. New York Acad. Sci. 51:660-672, 1949, and Hill (J. Physiol. 40:IV-VIII, 1910, to provide estimates for the maximum number of binding sites (Bmax) and the equilibrium dissociation constant (Ka).
# In displacement experiments, inhibition curves were analyzed by either logit-log plots or the iterative curve fitting computer program ALLFIT (DeLean, Munson and Redbard, 1978) to provide estimates of the IC50 and nH (apparent Hill coefficient) values). (IC50 values were defined as the concentration of test compound required to produce 50% inhibition of specific binding.)
# The inhibition constant (Ki) of the test compound was then calculated according to the Cheng-Prusoff equation: [formula] where [L] is the concentration of radiolabel and Ka is the equilibrium dissociation constant.
row,SMILES,Ki [nM]
1,"C[C@](Cc1c[nH]c2ccccc12)(NC(=O)OC1C2CC3CC(C2)CC1C3)C(=O)N[C@@H](Cc1ccccc1)C(=O)N[C@@H](CCC(=O)O)C(=O)O (stereo partly drawn) [Compound 6i, L-Glutamic acid, N-[N-[α-methyl-N-[(tricyclo[3.3.1.1^3,7]dec-2-yloxy)carbonyl]-D-tryptophyl]-L-phenylalanyl]]",1520
2,"C[C@](Cc1c[nH]c2ccccc12)(NC(=O)OC1C2CC3CC(C2)CC1C3)C(=O)N[C@@H](Cc1ccccc1)C(=O)NCCC(=O)O (stereo partly drawn) [Compound 6a, β-Alanine, N-[N-[α-methyl-N-[(tricyclo[3.3.1.1^3,7]-dec-2-yloxy)carbonyl]-D-tryptophyl]-L-phenylalanyl]]",27.9 ± 4.1
3,COC(=O)CC[C@H](NC(=O)[C@H](Cc1ccccc1)NC(=O)[C@@](C)(Cc1c[nH]c2ccccc12)NC(=O)OC1C2CC3CC(C2)CC1C3)C(=O)OC (stereo partly drawn) [Compound 5f],110
4,"COC(=O)CCCCCNC(=O)[C@H](Cc1ccccc1)NC(=O)[C@@](C)(Cc1c[nH]c2ccccc12)NC(=O)OC1C2CC3CC(C2)CC1C3 (stereo partly drawn) [Compound 5d, L-Phenylalaninamide, α-methyl-N-[(tricyclo[3.3.1.1^3,7]dec-2-yloxy)carbonyl]-D-tryptophyl-N-(6-methoxy-6-oxohexyl)]",173
5,"C[C@](Cc1c[nH]c2ccccc12)(NC(=O)OC1C2CC3CC(C2)CC1C3)C(=O)N[C@@H](Cc1ccccc1)C(=O)N[C@@H](CC(=O)O)C(=O)O (stereo partly drawn) [Compound 6h, L-Aspartic acid, N-[N-[α-methyl-N-[(tricyclo[3.3.1.1^3,7]dec-2-yloxy)carbonyl]-D-tryptophyl]-L-phenylalanyl]]",1170
6,"C[C@](Cc1c[nH]c2ccccc12)(NC(=O)OC1C2CC3CC(C2)CC1C3)C(=O)N[C@@H](Cc1ccccc1)C(=O)NCC(=O)O (stereo partly drawn) [Compound 6j, Glycine, N-[2-methyl-N-[(tricyclo[3.3.1.1^3,7]dec-2-yloxy)carbonyl]-D-tryptophyl]-L-phenylalanyl-]",7.41 ± 1.04

# Continued, values first:
row,Ki [nM],SMILES
1,4.4 ± 0.6,C[C@](Cc1c[nH]c2ccccc12)(NC(=O)OC1C2CC3CC(C2)CC1C3)C(=O)N[C@H](CC(=O)NCC(=O)O)Cc1ccccc1 (stereo partly drawn) [Compound 11k]
2,66.4,CCOC(=O)CCCNC(=O)C[C@H](Cc1ccccc1)NC(=O)[C@@](C)(Cc1c[nH]c2ccccc12)NC(=O)OC1C2CC3CC(C2)CC1C3 (stereo partly drawn) [Compound 10l]
3,10.6 ± 0.12,"C[C@](Cc1c[nH]c2ccccc12)(NC(=O)OC1C2CC3CC(C2)CC1C3)C(=O)N[C@H](CC(=O)NCCCC(=O)O)Cc1ccccc1 (stereo partly drawn) [Compound 11l, Butanoic acid, 4-[[3-[[3-(1H-indol-3-yl)-2-methyl-1-oxo-2-[[(tricyclo[3.3.1.1^3,7]dec-2-yloxy)carbonyl]amino]propyl]amino]-1-oxo-4-phenylbutyl]amino]-, [R-(R*,S*)]]"
4,9.44,"C[C@](Cc1c[nH]c2ccccc12)(NC(=O)OC1C2CC3CC(C2)CC1C3)C(=O)N[C@H](CC(=O)NCCC(=O)O)Cc1ccccc1 (stereo partly drawn) [Compound 11a, β-Alanine, N-[3-[[3-(1H-indol-3-yl)-2-methyl-1-oxo-2-[[(tricyclo[3.3.1.1^3,7]dec-2-yloxy)carbonyl]amino]propyl]amino]-1-oxo-4-phenylbutyl]-, [R-(R*,S*)]]"
5,21.2 ± 5.4,"COC(=O)CCNC(=O)C[C@H](Cc1ccccc1)NC(=O)[C@@](C)(Cc1c[nH]c2ccccc12)NC(=O)OC1C2CC3CC(C2)CC1C3 (stereo partly drawn) [Compound 10a, β-Alanine, N-[3-[[3-(1H-indol-3-yl)-2-methyl-1-oxo-2-[[(tricyclo[3.3.1.1^3,7]dec-2-yloxy)carbonyl]amino]propyl]amino]-1-oxo-4-phenylbutyl]-, methyl ester, [R-(R*,S*)]]"
6,17.9,"CCOC(=O)CNC(=O)C[C@H](Cc1ccccc1)NC(=O)[C@@](C)(Cc1c[nH]c2ccccc12)NC(=O)OC1C2CC3CC(C2)CC1C3 (stereo partly drawn) [Compound 10k, Glycine, N-[3-[[3-(1H-indol-3-yl)-2-methyl-1-oxo-2-[[(tricyclo[3.3.1.1^3,7]dec-2-yloxy)carbonyl]amino]propyl]amino]-1-oxo-4-phenylbutyl]-, ethyl ester, [R-(R*,S*)]-]"
